# Test results from US9738653B2, “Fused furans for the treatment of hepatitis C” (BRISTOL-MYERS SQUIBB COMPANY, priority 2013, dated 2017).
# Columns and labels:
# HCV [1] = settings: combination therapy; cited from earlier work
# HCV [2] = settings: cited from earlier work
# [3] = target: T1, HCV NS5B genotype 1b (Con1) (Hepatitis C virus genotype 1b, UniProt Q9WMX2); experiment: HCV NS5B RdRp enzyme assay; type: biochemical; settings: 1b enzyme, 24 hours at 30° C.
# T1 construct: Each untagged protein was expressed with an 18 amino acid C-terminal truncation to enhance the solubility; made in house; host or cells: E. coli BL21(DE3), pET21a
# Protocol: The cDNA encoding NS5B proteins of HCV genotype 1b (Con1), a genotype 1b variant with amino acid 316 mutated from cysteine to asparagine, and genotype 2a (JFH-1), were cloned into the pET21a expression vector. Each untagged protein was expressed with an 18 amino acid C-terminal truncation to enhance the solubility. The E. coli competent cell line BL21(DE3) was used for expression of the protein. Cultures were grown at 37° C. for ˜4 hours until the cultures reached an optical density of 2.0 at 600 nm. The cultures were cooled to 20° C. and induced with 1 mM IPTG. Fresh ampicillin was added to a final concentration of 50 μg/mL and the cells were grown overnight at 20° C.
# The lysis buffer consisted of 20 mM Tris-HCl, pH 7.4, 500 mM NaCl, 0.5% triton X-100, 1 mM DTT, 1 mM EDTA, 20% glycerol, 0.5 mg/mL lysozyme, 10 mM MgCl2, 15 ug/mL deoxyribonuclease I, and Complete™ protease inhibitor tablets (Roche). After addition of the lysis buffer, frozen cell pellets were resuspended using a tissue homogenizer. To reduce the viscosity of the sample, aliquots of the lysate were sonicated on ice using a microtip attached to a Branson sonicator. The sonicated lysate was centrifuged at 100,000×g for 30 minutes at 4° C. and filtered through a 0.2 μm filter unit (Corning).
# The protein was purified using two sequential chromatography steps: Heparin sepharose CL-6B and polyU sepharose 4B. The chromatography buffers were identical to the lysis buffer but contained no lysozyme, deoxyribonuclease I, MgCl2 or protease inhibitor and the NaCl concentration of the buffer was adjusted according to the requirements for charging the protein onto the column. Each column was eluted with a NaCl gradient which varied in length from 5-50 column volumes depending on the column type. […] The enzyme was aliquoted and stored at −80° C.
# An on-bead solid phase homogeneous assay was used in a 384-well format to assess NS5B inhibitors (WangY-K, Rigat K, Roberts S, and Gao M (2006) Anal Biochem, 359: 106-111). The biotinylated oligo dT12 primer was captured on streptavidin-coupled imaging beads (GE, RPNQ0261) by mixing primer and beads in 1× buffer and incubating at room temperature for three hours. Unbound primer was removed after centrifugation. The primer-bound beads were resuspended in 3× reaction mix (20 mM Hepes buffer, pH 7.5, dT primer coupled beads, poly A template, ^3H-UTP, and RNAse inhibitor (Promega N2515)). Compounds were serially diluted 1:3 in DMSO and aliquoted into assay plates. Equal volumes (5 μL) of water, 3× reaction mix, and enzyme in 3× assay buffer (60 mM Hepes buffer, pH 7.5, 7.5 mM MgCl2, 7.5 mM KCl, 3 mM DTT, 0.03 mg/mL BSA, 6% glycerol) were added to the diluted compound on the assay plate. Final concentration of components in 384-well assay: 0.36 nM template, 15 nM primer, 0.29 μM ^3H-UTP (0.3 μCi, 1.6 U/μL RNAse inhibitor, 7 nM NS5B enzyme, 0.01 mg/mL BSA, 1 mM DTT, and 0.33 μg/μL beads, 20 mM Hepes buffer, pH 7.5, 2.5 mM MgCl2, 2.5 mM KCl, and 0.1% DMSO.
# Reactions were allowed to proceed for 24 hours at 30° C. and terminated by the addition of 50 mM EDTA (5 μL). After incubating for at least 15 minutes, plates were read on an Amersham LEADseeker multimodality imaging system.
# IC50 values for compounds were determined using ten different [I]. IC50 values were calculated from the inhibition using the four-parameter logistic formula y=A+((B−A)/(1+((C/x)^D))), where A and B denote minimal and maximal % inhibition, respectively, C is the IC50, D is hill slope and x represents compound concentration.
# [4] = tested on: genotype 1b (Con-1) HCV replicon in Huh-7 cells; experiment: HCV replicon luciferase assay; type: cell-based; settings: Hepatitis C virus, Huh-7, 72 h, 1b replicon, Renilla luciferase, 3 days incubation
# Protocol: The cell lines used to evaluate compounds consist of a human hepatocyte derived cell line (Huh-7) that constitutively expresses a genotype 1b (Con-1) HCV replicon or a genotype 1b (Con-1) HCV replicon with an asparagine replacing the cysteine at amino acid 316, or a genotype 2a (JFH-1) replicon, containing a Renilla luciferase reporter gene. These cells were maintained in Dulbecco's modified Eagle medium (DMEM) containing 10% FBS, 100 U/mL penicillin/streptomycin and 1.0 mg/mL G418.
# To evaluate compound efficacy, titrated compounds were transferred to sterile 384-well tissue culture treated plates, and the plates were seeded with HCV replicon cells ([…] at a density of 2.4×10^3 cells/well) in DMEM containing 4% FBS (final DMSO concentration at 0.5%). After 3 days incubation at 37° C., cells were analyzed for Renilla Luciferase activity using the EnduRen substrate (Promega cat #E6485) according to the manufacturer's directions. Briefly, the EnduRen substrate was diluted in DMEM and then added to the plates to a final concentration of 7.5 μM. The plates were incubated for at least 1 h at 37° C. then read on a Viewlux Imager (PerkinElmer) using a luminescence program. The 50% effective concentration (EC50) was calculated using the four-parameter logistic formula noted above.
# T1 sequence (Q9WMX2 2420-2992): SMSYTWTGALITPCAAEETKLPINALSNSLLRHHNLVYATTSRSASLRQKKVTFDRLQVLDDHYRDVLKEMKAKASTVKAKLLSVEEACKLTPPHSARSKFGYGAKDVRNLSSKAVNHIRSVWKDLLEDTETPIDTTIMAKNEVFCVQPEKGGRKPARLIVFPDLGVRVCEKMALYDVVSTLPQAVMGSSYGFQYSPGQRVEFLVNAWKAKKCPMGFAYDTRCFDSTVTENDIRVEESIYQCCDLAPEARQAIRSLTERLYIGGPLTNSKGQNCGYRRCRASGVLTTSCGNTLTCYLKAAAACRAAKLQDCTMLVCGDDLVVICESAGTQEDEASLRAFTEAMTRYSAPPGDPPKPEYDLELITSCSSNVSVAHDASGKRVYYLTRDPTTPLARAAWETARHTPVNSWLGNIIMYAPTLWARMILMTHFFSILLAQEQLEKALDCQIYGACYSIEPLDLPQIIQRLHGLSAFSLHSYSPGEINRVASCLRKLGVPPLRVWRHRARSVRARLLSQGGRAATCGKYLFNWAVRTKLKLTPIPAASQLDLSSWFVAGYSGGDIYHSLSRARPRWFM
Compound,"sustained efficacy, patients (HCV [1]) [%]",hepatic toxicity (HCV [2]; extended dosing of the combination regimens with interferon and ribavirin),"HCV RNA levels in patients (HCV [2]; patients, single agent)",IC50 [3] [nM],EC50 [4] [nM]
alpha-interferon and ribavirin,40,–,–,–,–
CNC(=O)c1c(-c2ccc(F)cc2)oc2cc(N(CCO)S(C)(=O)=O)c(C3CC3)cc12 [HCV-796],–,hepatic toxicity observed,showed an ability to reduce HCV RNA levels in patients,–,–
CCC(C)c1cc2oc(-c3ccc(F)cc3)c(C(=O)NC)c2cc1-c1cccc(C(=O)NC23CC(C2)C3)c1 (centres unmarked) [drawing 304],–,–,–,5.87,10
CCCc1cc2oc(-c3ccc(F)cc3)c(C(=O)NC)c2cc1-c1cc(C(=O)NC23CC(C2)C3)c(OC)cc1C,–,–,–,30,30
CNC(=O)c1c(-c2ccc(F)cc2)oc2cc(CCC(F)(F)F)c(-c3cc(C(=O)NC45CC(C4)C5)c(OC)cc3C)cc12,–,–,–,50,40
CNC(=O)c1c(-c2ccc(F)cc2)oc2nc(OC)c(-c3ccc(F)c(C(=O)NC45CC(C4)C5)c3)cc12,–,–,–,90,20
CCCc1cc2oc(-c3ccc(F)cc3)c(C(=O)NC)c2cc1-c1cccc(C(=O)NC23CC(C2)C3)c1,–,–,–,20,5.82
CNC(=O)c1c(-c2ccc(F)cc2)oc2nc(CCC(F)(F)F)c(-c3ccc(F)c(C(=O)NC45CC(C4)C5)c3)cc12,–,–,–,9.4,5.05
CNC(=O)c1c(-c2ccc(F)cc2)oc2cc(CC(N)=O)c(-c3cccc(C(=O)NC45CC(C4)C5)c3)cc12,–,–,–,40,20
CNC(=O)c1c(-c2ccc(F)cc2)oc2nc(CCC(F)(F)F)c(-c3cccc(C(=O)NC45CC(C4)C5)c3)cc12,–,–,–,5.85,4.07
CCCc1cc2oc(-c3ccc(F)cc3)c(C(=O)NC)c2cc1-c1ccc(F)c(C(=O)NC23CC(C2)C3)c1,–,–,–,10,8.79
CCNc1cc2oc(-c3ccc(F)cc3)c(C(=O)NC)c2cc1-c1cc(C(=O)NC23CC(C2)C3)c(F)cc1F,–,–,–,20,10
CNC(=O)c1c(-c2ccc(F)cc2)oc2nc(NCC(F)(F)F)c(-c3ccc(F)c(C(=O)NC45CC(C4)C5)c3)cc12,–,–,–,9.08,4.34
CNC(=O)c1c(-c2ccc(F)cc2)oc2nc(NCC(F)F)c(-c3ccc(F)c(C(=O)NC45CC(C4)C5)c3)cc12,–,–,–,6.13,2.13
CNC(=O)c1c(-c2ccc(F)cc2)oc2cc(CC(=O)OC)c(-c3cccc(C(=O)NC45CC(C4)C5)c3)cc12,–,–,–,8.01,8.19
CCCc1nc2oc(-c3ccc(F)cc3)c(C(=O)NC)c2cc1-c1ccc(F)c(C(=O)NC23CC(C2)C3)c1,–,–,–,5.65,5.16
CNC(=O)c1c(-c2ccc(F)cc2)oc2nc(NCC(F)F)c(-c3ccc(OC)c(C(=O)NC45CC(C4)C5)c3)cc12,–,–,–,8.87,6.23
CNC(=O)c1c(-c2ccc(F)cc2)oc2nc(NCC(F)F)c(-c3cccc(C(=O)NC45CC(C4)C5)c3)cc12,–,–,–,8.63,4.3
CNC(=O)c1c(-c2ccc(F)cc2)oc2cc(CCCF)c(-c3cccc(C(=O)NC45CC(C4)C5)c3)cc12,–,–,–,3.29,3.33
CNC(=O)c1c(-c2ccc(F)cc2)oc2cc(COC)c(-c3cccc(C(=O)NC45CC(C4)C5)c3)c(F)c12,–,–,–,210,7.88
CNC(=O)c1c(-c2ccc(F)cc2)oc2nc(CCC(F)(F)F)c(-c3cncc(C(=O)NC45CC(C4)C5)c3)cc12,–,–,–,20,3.3
